Laboratory results from patent US9249102B2 (priority 2012, dated 2016).
Read-outs that look alike come from different tables or passages of the source.

Key:
[1] = system: microfilaria of Dirofilaria immitis; experiment: Method F: microfilaria of Dirofilaria immitis, survival at 24 hours
Haemonchus contortus = experiment: Method A: Haemonchus contortus L1 larvae, microtitre plate screen; details: 96 h, read-out: motility inhibition
[2] = survival of microfilaria at 24 hours

| SMILES | EC50 [1, 2] | inhibition at 5 µg/mL (Haemonchus contortus) | EC50 [1] |
| --- | --- | --- | --- |
| O=C(NCCO[C@H]1CC[C@H](Nc2ccc([N+](=O)[O-])c(C(F)(F)F)c2)CC1)C(=O)NCc1cc2ccccc2o1 [Compound 220, N^1-(benzofuran-2-ylmethyl)-N^2-(2-(4-(4-nitro-3-(trifluoromethyl)phenylamino)cyclohexyloxy)ethyl)oxalamide] | < 1 mg/L | ≥ 90% | – |
| N#Cc1ccc(NC2CCN(C(=O)CCCN3CCN(c4ccc5cc(Cl)ccc5n4)CC3)CC2)cc1C(F)(F)F [Compound 96, 4-[(1-[4-[4-(6-chloroquinolin-2-yl)piperazin-1-yl]butanoyl]piperidin-4-yl)amino]-2-(trifluoromethyl)benzonitrile] | < 5 mg/L | ≥ 90% | – |
| N#Cc1ccc(N[C@H]2CC[C@H](OCC(=O)N3CCN(C(=O)C4Cc5cc(C(F)(F)F)ccc5O4)CC3)CC2)cc1C(F)(F)F (stereo partly shown) [Compound 87, 2-[4-(4-cyano-3-trifluoromethyl-phenylamino)-cyclohexyloxy]-1-[4-(5-trifluoromethyl-2,3-dihydro-benzofuran-2-carbonyl)-piperazin-1-yl]-ethanone] | < 5 mg/L | ≥ 90% | – |
| O=C(CO[C@H]1CC[C@H](Nc2ccc([N+](=O)[O-])c(C(F)(F)F)c2)CC1)N1CCN(Cc2oc3ccc(C(F)(F)F)cc3c2Cl)CC1 [Compound 253, 1-(4-[[3-chloro-5-(trifluoromethyl)-1-benzofuran-2-yl]methyl]piperazin-1-yl)-2-[[4-[[4-nitro-3-(trifluoromethyl)phenyl]amino]cyclohexyl]oxy]ethan-1-one] | < 0.1 mg/L | ≥ 90% | – |
| O=C(CO[C@H]1CC[C@H](Nc2ccc([N+](=O)[O-])c(C(F)(F)F)c2)CC1)N1CCN(C(=O)C2Cc3cc(C(F)(F)F)ccc3O2)CC1 (stereo partly shown) [Compound 81, 2-[4-(4-nitro-3-trifluoromethyl-phenylamino)-cyclohexyloxy]-1-[4-(5-trifluoromethyl-2,3-dihydro-benzofuran-2-carbonyl)-piperazin-1-yl]-ethanone] | < 1 mg/L | ≥ 90% | – |
| CC(O[C@H]1CC[C@H](Nc2ccc([N+](=O)[O-])c(C(F)(F)F)c2)CC1)C(=O)N1CCN(c2ccc3cc(C(F)(F)F)ccc3n2)CC1 (stereo partly shown) [Compound 249, 2-[[-4-[[4-nitro-3-(trifluoromethyl)phenyl]amino]cyclohexyl]oxy]-1-[4-[6-(trifluoromethyl)quinolin-2-yl]piperazin-1-yl]propan-1-one] | – | ≥ 90% | < 1 mg/L |
| CN(c1ccc([N+](=O)[O-])c(C(F)(F)F)c1)[C@H]1CC[C@H](OCC(=O)N2CCN(c3ccc4cc(F)ccc4c3)CC2)CC1 [Compound 248, 1-(4-(6-fluoronaphthalen-2-yl)piperazin-1-yl)-2-(4-(methyl(4-nitro-3-(trifluoromethyl)phenyl)amino)cyclohexyloxy)ethanone] | – | ≥ 90% | < 0.1 mg/L |
| C[C@@H]1CN(CC2Cc3cc(F)ccc3O2)[C@@H](C)CN1C(=O)CO[C@H]1CC[C@H](Nc2ccc(C#N)c(C(F)(F)F)c2)CC1 (stereo partly drawn) [Compound 308, 4-(4-{2-[(2R,5S)-4-(5-fluoro-2,3-dihydro-benzofuran-2-ylmethyl)-2,5-dimethyl-piperazin-1-yl]-2-oxo-ethoxy}-cyclohexylamino)-2-trifluoromethyl-benzonitrile] | – | ≥ 90% | < 0.1 mg/L |
| O=C(COc1ccc(Nc2ccc([N+](=O)[O-])c(C(F)(F)F)c2)cc1)N1CCN(CC2Cc3cc(F)ccc3O2)CC1 (stereo not shown) [Compound 185, 1-[4-[(5-fluoro-2,3-dihydro-1-benzofuran-2-yl)methyl]piperazin-1-yl]-2-(4-[[4-nitro-3-(trifluoromethyl)phenyl]amino]phenoxy)ethan-1-one] | < 0.1 mg/L | ≥ 90% | – |
| O=C(COc1ccc(Nc2ccc([N+](=O)[O-])c(C(F)(F)F)c2)cc1)N1CCN(Cc2cc3cc(Cl)ccc3o2)CC1 [Compound 184, 1-[4-[(5-chloro-1-benzofuran-2-yl)methyl]piperazin-1-yl]-2-(4-[[4-nitro-3-(trifluoromethyl)phenyl]amino]phenoxy)ethan-1-one] | < 1 mg/L | ≥ 90% | – |
| O=C(NCCO[C@H]1CC[C@H](Nc2ccc([N+](=O)[O-])c(C(F)(F)F)c2)CC1)C(=O)NCc1cc2cc(C(F)(F)F)ccc2o1 [Compound 223, N^1-(2-(4-(4-nitro-3-(trifluoromethyl)phenylamino)cyclohexyloxy)ethyl)-N^2-((5-(trifluoromethyl)benzofuran-2-yl)methyl)oxalamide] | – | ≥ 90% | < 0.1 mg/L |
| O=C(NCCO[C@H]1CC[C@H](Nc2ccc([N+](=O)[O-])c(C(F)(F)F)c2)CC1)C(=O)NCC1Cc2cc(F)ccc2O1 (stereo partly shown) [Compound 217] | – | ≥ 90% | < 1 mg/L |
| N#Cc1ccc(N[C@H]2CC[C@H](OCC(=O)N3CCN(c4ccc5cc(F)ccc5c4)CC3)CC2)cc1C(F)(F)F [Compound 279, 4-(4-{2-[4-(6-fluoro-naphthalen-2-yl)-piperazin-1-yl]-2-oxo-ethoxy}-cyclohexylamino)-2-trifluoromethyl-benzonitrile] | < 5 mg/L | ≥ 90% | – |
| CC(O[C@H]1CC[C@H](Nc2ccc([N+](=O)[O-])c(C(F)(F)F)c2)CC1)C(=O)N1CCN(c2ccc3cc(Cl)ccc3n2)CC1 (stereo partly shown) [Compound 250, 1-[4-(6-chloroquinolin-2-yl)piperazin-1-yl]-2-[[4-[[4-nitro-3-(trifluoromethyl)phenyl]amino]cyclohexyl]oxy]propan-1-one] | < 1 mg/L | ≥ 90% | – |
| O=C(CO[C@H]1CC[C@H](Nc2ccc([N+](=O)[O-])c(C(F)(F)F)c2)CC1)N1CCN(C(=O)C2Cc3cc(Cl)ccc3O2)CC1 (stereo partly shown) [Compound 79, 1-[4-[(5-chloro-2,3-dihydro-1-benzofuran-2-yl)carbonyl]piperazin-1-yl]-2-[(4-[[4-nitro-3-(trifluoromethyl)phenyl]amino]cyclohexyl)oxy]ethan-1-one] | < 5 mg/L | ≥ 90% | – |
| O=C(CO[C@H]1CC[C@H](Nc2ccc([N+](=O)[O-])c(C(F)(F)F)c2)CC1)N1CCN(c2ccc3ccccc3c2)CC1 [Compound 14, 1-[4-(naphthalen-2-yl)piperazin-1-yl]-2-[(4-[[4-nitro-3-(trifluoromethyl)phenyl]amino]cyclohexyl)oxy]ethan-1-one] | < 1 mg/L | ≥ 90% | – |
| CN(c1ccc([N+](=O)[O-])c(C(F)(F)F)c1)[C@H]1CC[C@H](OCC(=O)N2CCN(Cc3cc4cc(Cl)ccc4o3)CC2)CC1 [Compound 275, 2-[(4-[methyl[4-nitro-3-(trifluoromethyl)phenyl]amino]cyclohexyl)-oxy]1-[4-(5-chlorobenzofuran-2-ylmethyl)piperazin-1-yl]ethan-1-one] | < 1 mg/L | ≥ 90% | – |
| CN(c1ccc([N+](=O)[O-])c(C(F)(F)F)c1)[C@H]1CC[C@H](OCC(=O)N2CCN(Cc3oc4ccc(C(F)(F)F)cc4c3Cl)CC2)CC1 [Compound 258, 1-(4-[[3-chloro-5-(trifluoromethyl)-1-benzofuran-2-yl]methyl]piperazin-1-yl)-2-[[4-[methyl[4-nitro-3-(trifluoromethyl)phenyl]amino]cyclohexyl]oxy]ethan-1-one] | < 1 mg/L | ≥ 90% | – |
| CC(O[C@H]1CC[C@H](Nc2ccc([N+](=O)[O-])c(C(F)(F)F)c2)CC1)C(=O)N1CCN(c2ccc3cc(F)ccc3n2)CC1 (stereo partly shown) [Compound 251, 1-[4-(6-fluoroquinolin-2-yl)piperazin-1-yl]-2-[[4-[[4-nitro-3-(trifluoromethyl)phenyl]amino]cyclohexyl]oxy]propan-1-one] | < 1 mg/L | ≥ 90% | – |
| O=C(NCCOc1ccc(Nc2ccc([N+](=O)[O-])c(C(F)(F)F)c2)cc1)C(=O)NCC1Cc2cc(F)ccc2O1 (stereo not shown) [Compound 225, N^1-((5-fluoro-2,3-dihydrobenzofuran-2-yl)methyl)-N^2-(2-(4-(4-nitro-3-(trifluoromethyl)phenylamino)phenoxy)ethyl)oxalamide] | < 1 mg/L | ≥ 90% | – |
| O=C(NCCOc1ccc(Nc2ccc([N+](=O)[O-])c(C(F)(F)F)c2)cc1)C(=O)NCC1Cc2cc(Cl)ccc2O1 (stereo not shown) [Compound 226, N^1-((5-chloro-2,3-dihydrobenzofuran-2-yl)methyl)-N^2-(2-(4-(4-nitro-3-(trifluoromethyl)phenylamino)phenoxy)ethyl)oxalamide] | < 1 mg/L | ≥ 90% | – |
| CN(c1ccc([N+](=O)[O-])c(C(F)(F)F)c1)[C@H]1CC[C@H](OCC(=O)N2CCN(c3ccc4cc(F)ccc4n3)CC2)CC1 [Compound 247, 1-(4-(6-fluoroquinolin-2-yl)piperazin-1-yl)-2-(4-(methyl(4-nitro-3-(trifluoromethyl)phenyl)amino)cyclohexyloxy)ethanone] | < 1 mg/L | ≥ 90% | – |
| O=C(NCCO[C@H]1CC[C@H](Nc2ccc([N+](=O)[O-])c(C(F)(F)F)c2)CC1)C(=O)NCC1Cc2cc(C(F)(F)F)ccc2O1 (stereo partly shown) [Compound 219, N^1-[2-[(4-[[4-nitro-3-(trifluoromethyl)phenyl]amino]cyclohexyl)oxy]ethyl]-N^2-[[5-(trifluoromethyl)-2,3-dihydro-1-benzofuran-2-yl]methyl]ethanediamide] | < 1 mg/L | ≥ 90% | – |
| CC(O[C@H]1CC[C@H](Nc2ccc([N+](=O)[O-])c(C(F)(F)F)c2)CC1)C(=O)N1CCN(c2ccc3cc(F)ccc3c2)CC1 (stereo partly shown) [Compound 252, 1-(4-(6-fluoronaphthalen-2-yl)piperazin-1-yl)-2-(−4-(4-nitro-3-(trifluoromethyl)phenylamino)cyclohexyloxy)propan-1-one] | < 1 mg/L | ≥ 90% | – |
| O=C(COc1ccc(Nc2ccc([N+](=O)[O-])c(C(F)(F)F)c2)cc1)N1CCN(Cc2cc3cc(F)ccc3o2)CC1 [Compound 186] | < 1 mg/L | ≥ 90% | – |
| O=[N+]([O-])c1ccc(N[C@H]2CC[C@H](OCC(=S)N3CCN(c4ccc5cc(F)ccc5c4)CC3)CC2)cc1C(F)(F)F [Compound 263, 1-[4-(6-fluoro-naphthalen-2-yl)-piperazin-1-yl]-2-[4-(4-nitro-3-trifluoromethyl-henylamino)-cyclohexyloxy]-ethanethione] | < 1 mg/L | ≥ 90% | – |
